# Measurements published in the supplement of paper PMC10307832.
# What was measured:
# Test in all cases: relative viability (nuclei count vs DMSO), 5 days (fraction); higher = more cells survive
# Tozasertib + Lapatinib = compound: Cc1cc(Nc2cc(N3CCN(C)CC3)nc(Sc3ccc(NC(=O)C4CC4)cc3)n2)n[nH]1 [Tozasertib] + CS(=O)(=O)CCNCc1ccc(-c2ccc3ncnc(Nc4ccc(OCc5cccc(F)c5)c(Cl)c4)c3c2)o1 [Lapatinib] (partner 2 µM)
# In short: (§1)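 A single step with final 0.05% Triton X-100, 1% formaldehyde and 1 ug/ml Hoechst fixed the cells and stained nuclei 5 days after treatment. Lung cancer cell lines in 1536-well plates had been treated by pin tool the day after seeding with one drug alone or a fixed anchor-drug dose plus five library-drug doses (not always all listed) in √10 steps, and nuclei were counted on 4× images. Relative viability is the ratio of nuclei in treated wells to nuclei in vehicle wells, taken as the median of duplicate plates.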
# Tozasertib + Palbociclib = compound: Cc1cc(Nc2cc(N3CCN(C)CC3)nc(Sc3ccc(NC(=O)C4CC4)cc3)n2)n[nH]1 [Tozasertib] + CC(=O)c1c(C)c2cnc(Nc3ccc(N4CCNCC4)cn3)nc2n(C2CCCC2)c1=O [Palbociclib] (partner 0.5 µM)
# In short: as §1
# Tozasertib + Pemetrexed = compound: Cc1cc(Nc2cc(N3CCN(C)CC3)nc(Sc3ccc(NC(=O)C4CC4)cc3)n2)n[nH]1 [Tozasertib] + Nc1nc2[nH]cc(CCc3ccc(C(=O)N[C@@H](CCC(=O)O)C(=O)O)cc3)c2c(=O)[nH]1 [Pemetrexed] (partner 0.2 µM)
# In short: as §1
# Tozasertib + AZD7762 = compound: Cc1cc(Nc2cc(N3CCN(C)CC3)nc(Sc3ccc(NC(=O)C4CC4)cc3)n2)n[nH]1 [Tozasertib] + NC(=O)Nc1cc(-c2cccc(F)c2)sc1C(=O)N[C@H]1CCCNC1 [AZD7762] (partner 0.2 µM)
# In short: as §1
Cell Line,relative viability (Tozasertib + Lapatinib; first compound 0.004 µM),relative viability (Tozasertib + Lapatinib; first compound 0.01265 µM),relative viability (Tozasertib + Lapatinib; first compound 0.04 µM),relative viability (Tozasertib + Lapatinib; first compound 0.1265 µM),relative viability (Tozasertib + Palbociclib; first compound 0.004 µM),relative viability (Tozasertib + Palbociclib; first compound 0.01265 µM),relative viability (Tozasertib + Palbociclib; first compound 0.04 µM),relative viability (Tozasertib + Palbociclib; first compound 0.1265 µM),relative viability (Tozasertib + Pemetrexed; first compound 0.004 µM),relative viability (Tozasertib + Pemetrexed; first compound 0.01265 µM),relative viability (Tozasertib + Pemetrexed; first compound 0.04 µM),relative viability (Tozasertib + Pemetrexed; first compound 0.1265 µM),relative viability (Tozasertib + AZD7762; first compound 0.004 µM),relative viability (Tozasertib + AZD7762; first compound 0.01265 µM),relative viability (Tozasertib + AZD7762; first compound 0.04 µM),relative viability (Tozasertib + AZD7762; first compound 0.1265 µM)
LK-2,1.01,0.869,1.01,0.219,0.736,0.782,0.887,0.378,0.307,0.354,0.287,0.134,0.466,0.54,0.624,0.138
LOU-NH91,0.789,0.742,0.803,0.638,0.526,0.536,0.512,0.529,0.421,0.409,0.372,0.39,0.733,0.719,0.838,0.64
LU99A,1.07,0.749,0.742,0.467,0.423,0.386,0.369,0.324,0.165,0.155,0.207,0.193,0.314,0.328,0.306,0.169
LXF-289,0.956,0.846,0.823,0.722,0.63,0.6,0.561,0.583,0.972,0.824,0.842,0.859,1.12,1.02,1.04,0.619
NCI-H23,1.1,0.96,0.989,0.269,0.58,0.518,0.498,0.313,0.888,0.659,0.695,0.319,0.199,0.259,0.216,0.186
NCI-H322M,0.594,0.538,0.614,0.519,–,0.515,0.466,0.486,0.575,0.585,0.629,0.478,0.497,0.507,0.572,0.48
NCI-H358,0.54,0.376,0.439,0.206,0.14,0.135,0.168,0.0747,0.179,0.164,0.181,0.145,0.393,–,0.475,0.227
NCI-H460,0.968,0.842,1.01,0.0247,0.172,0.18,0.196,0.115,0.0596,0.0601,0.0605,0.0623,0.548,0.657,0.737,–
NCI-H647,1.13,0.989,0.895,0.235,0.457,0.398,0.425,0.299,0.186,0.183,0.169,0.125,0.567,0.418,0.43,0.0736
NCI-H650,1.05,0.844,0.991,0.454,0.362,0.288,0.317,0.313,1.01,0.897,0.878,0.82,0.935,1.07,0.797,1.05
NCI-H838,1.12,0.947,1.16,0.208,0.238,0.213,0.25,0.171,0.263,0.257,0.249,0.232,0.881,0.971,0.925,–
NCI-H1355,0.934,1.02,0.987,0.791,0.362,0.424,0.457,0.391,1.12,0.974,1.03,0.948,0.76,0.698,0.77,0.661
NCI-H1395,1.29,0.818,1.04,0.572,0.613,0.612,0.632,0.56,0.979,0.797,0.864,0.584,0.385,0.414,0.389,0.397
NCI-H1437,0.782,0.74,0.759,0.329,0.327,0.267,0.316,0.19,0.302,0.292,0.328,0.296,1.14,1.16,1.01,1.14
NCI-H1651,0.973,0.806,–,0.392,0.54,0.515,0.539,0.519,0.593,0.615,0.582,0.433,0.469,0.464,0.498,0.422
NCI-H1666,0.61,0.489,0.578,0.298,0.644,0.62,0.663,0.612,0.843,0.921,0.846,0.816,0.941,0.761,0.903,0.671
NCI-H1734,1.06,–,–,0.497,0.361,0.308,0.364,0.306,0.424,0.351,0.453,0.436,0.506,0.559,0.532,0.228
NCI-H1755,–,1.01,–,0.882,0.456,0.461,0.442,0.442,0.376,0.42,0.401,0.4,0.46,0.432,0.406,0.445
NCI-H1792,0.913,0.742,0.943,0.737,0.731,0.594,0.758,0.61,0.928,0.616,0.895,0.515,0.902,0.588,0.904,0.69
